Read-outs that look alike come from different tables or passages of the source.
Columns and labels:
[1] = Decomposition of prodrugs in mouse plasma in vitro (HPLC of released propofol or other substituted phenol); type: in vitro ADME; conditions: 37° C.
Method: The prodrug to be tested was prepared into a saline solution of 10 mg/mL. 10 μL of drug-containing solution was added to 990 μL of mouse plasma, vortexed for 30 s, and then incubated at 37° C. At 30 s, 1 min, 5 min, 10 min, 30 min, 60 min and 120 min, 50 μL of drug-containing plasma was collected, to which was immediately added 150 μL of acetonitrile to terminate the enzymatic reaction, and then centrifuged at 20000 rpm and 4° C. for 10 min. 50 μL of supernatant was taken out and injected into HPLC, to determine the concentration of propofol by internal standard method. The decomposition rate of the prodrug was calculated from the concentrations of propofol or other substituted phenols. Chromatographic conditions: Agilent Zorbax XdB C18 column (150 mm)×4.6 mm, 5 μm); column temperature 30° C.; the mobile phase, water:acetonitrile (40:60, v/v); fluorescence wavelength: excitation wavelength (Ex) at 276 nm, emission wavelength (EM) at 310 nm; flow rate: 1.2 mL/min; retention time: internal standard (thymol) 3.9 min, propofol 7.4 min. Linear range of propofol or other substituted phenols: 50-35000 ng/mL. Instruments: Waters 2695 high performance liquid chromatograph, Waters 2475 fluorescence detector.

[2] = tested on: Kunming mice; assay: Determination of therapeutic index (ED50 and LD50, up-and-down method); type: in vivo, mouse; conditions: half male and half female
Method: Determination of therapeutic index (TI) of prodrug molecules: by referring the method in literature (Dixon, W. Staircase bioassay: the up-and-down method. Neurosci. Biobehav. Rev. 1991, 15, 47-50), the half-effective dose (ED50) and half-lethal dose (LD50) of the molecule to be tested were determined in Kunming mice (weighing 25-30 g, half male and half female). The therapeutic index for each molecule was calculated according to the equation: TI=LD50/ED50.

[3] = tested on: Kunming mice; type: in vivo, mouse
Method: For each drug, 10 male Kunming mice weighing 20-35 g were included, and the dose of each drug was 2×ED50 in mice. After the compound of the present invention and fospropofol were respectively dissolved in saline, the resultant solutions were injected via the mouse tail vein. For propofol, a glucose dilution (5 mg/mL) of a commercially available emulsion of diprivan was selected and injected via the mouse tail vein; while, for another substituted phenol molecule (CAS:1637741-58-2), its 30% fat emulsion was prepared as a medicated emulsion. The concentration of the injectable solution of the compound according to the present invention was 10-15 mg/mL, and the concentration of the injectable solution of fospropofol was 55 mg/mL, while the concentration of the injectable solution of another substituted phenol molecule (CAS:1637741-58-2) was 1 mg/mL. After injection of tested drug, the occurrence time T1 of righting reflex after its disappearance, the duration T2 for the disappearance of righting reflex (i.e. anesthesia time) and the time T3 required for the animal to recover completely after waking up were recorded. Complete recovery refers to the recovery of autonomous activities of animals to the level before administration. In the experiment, animals were not given respiratory support such as oxygen inhalation or intubation.

[4] = Table 3, dose 2×ED50, tail vein injection, male Kunming mice
[5] = Table 4 (other substituted phenols and prodrugs), dose 2×ED50, tail vein injection, male Kunming mice

## CC(C)c1cccc(C(C)C)c1OC(=O)COC(=O)CN1CCCCC1 [Compound 29]
[1]; 30 s
  Decomposition rates of prodrugs: 88%
[1]; 1 min
  Decomposition rates of prodrugs: 100%
[1]; 5 min
  Decomposition rates of prodrugs: 100%
[1]; 10 min
  Decomposition rates of prodrugs: 100%
[1]; 30 min
  Decomposition rates of prodrugs: 100%
[1]; 60 min
  Decomposition rates of prodrugs: 100%
[1]; 120 min
  Decomposition rates of prodrugs: 100%
[2]
  TI (therapeutic index): 4.1
[3]; [4]
  T3: the time required for righting reflex to recover to autonomous activity: 1 to 2 min
[3]; mouse, in vivo
  T1: the onset time after injection: Immediate
  T2: the duration of disappearance of righting reflex: 5 to 14 min

## CC(C)c1cccc(C(C)C)c1OC(=O)COC(=O)CN(C)C [Compound 3]
[1]; 30 s
  Decomposition rates of prodrugs: 51%
[1]; 1 min
  Decomposition rates of prodrugs: 67%
[1]; 5 min
  Decomposition rates of prodrugs: 80%
[1]; 10 min
  Decomposition rates of prodrugs: 90%
[1]; 30 min
  Decomposition rates of prodrugs: 97%
[1]; 60 min
  Decomposition rates of prodrugs: 100%
[1]; 120 min
  Decomposition rates of prodrugs: 100%
[3]; mouse, in vivo
  T1: the onset time after injection: Immediate
  T2: the duration of disappearance of righting reflex: 5 to 10 min
  T3: the time required for righting reflex to recover to autonomous activity: 1 to 2 min

## CNCC(=O)OCC(=O)Oc1c(C(C)C)cccc1C(C)C [Compound 2]
[1]; 30 s
  Decomposition rates of prodrugs: 87%
[1]; 1 min
  Decomposition rates of prodrugs: 98%
[1]; 5 min
  Decomposition rates of prodrugs: 100%
[1]; 10 min
  Decomposition rates of prodrugs: 100%
[1]; 30 min
  Decomposition rates of prodrugs: 100%
[1]; 60 min
  Decomposition rates of prodrugs: 100%
[1]; 120 min
  Decomposition rates of prodrugs: 100%
[3]; mouse, in vivo
  T1: the onset time after injection: Immediate
  T2: the duration of disappearance of righting reflex: 7 to 15 min
  T3: the time required for righting reflex to recover to autonomous activity: 1 to 2 min

## CC(C)c1cccc([C@H](C)C2CC2)c1OC(=O)COC(=O)CN1CCCCC1.Cl [Compound 53]
[3]; [5]
  T1: the onset time after injection: Immediate
  T2: the duration of disappearance of righting reflex: 5 to 8.5 min
  T3: the time required for righting reflex to recover to autonomous activity: 1 to 2 min

## CC(C)c1cccc(C(C)C)c1OC(=O)COC(=O)CN1CCOCC1 [Compound 22]
[1]; 30 s
  Decomposition rates of prodrugs: 58%
[1]; 1 min
  Decomposition rates of prodrugs: 66%
[1]; 5 min
  Decomposition rates of prodrugs: 80%
[1]; 10 min
  Decomposition rates of prodrugs: 89%
[1]; 30 min
  Decomposition rates of prodrugs: 100%
[1]; 60 min
  Decomposition rates of prodrugs: 100%
[1]; 120 min
  Decomposition rates of prodrugs: 100%
[2]
  TI (therapeutic index): 4.7
[3]; [4]
  T3: the time required for righting reflex to recover to autonomous activity: 1 to 2 min
[3]; mouse, in vivo
  T1: the onset time after injection: Immediate
  T2: the duration of disappearance of righting reflex: 4.5 to 10.5 min

## CC(C)c1cccc(C(C)C)c1OCOP(=O)(O)O [Fospropofol, fospropofol, reference compound]
[1]; 10 min
  Decomposition rates of prodrugs: not decomposed significantly
[1]; 30 min
  Decomposition rates of prodrugs: 3%
[1]; 60 min
  Decomposition rates of prodrugs: 16%
[1]; 120 min
  Decomposition rates of prodrugs: 38%
[1]; 120 min, listed as fopropofol
  Decomposition rates of prodrugs: 38%
[2]
  TI (therapeutic index): 2.9
[3]; [4]
  T1: the onset time after injection: 1.5 to 2 min
  T2: the duration of disappearance of righting reflex: 28 to 45 min
  T3: the time required for righting reflex to recover to autonomous activity: 5 to 8 min

## CC(C)c1cccc(C(C)C)c1O [Propofol, reference compound]
[2]
  TI (therapeutic index): 4.4
[3]; mouse, in vivo
  T1: the onset time after injection: Immediate
  T2: the duration of disappearance of righting reflex: 5 to 11.5 min
  T3: the time required for righting reflex to recover to autonomous activity: 1 to 2 min

## CC(C)c1cccc(C(C)C)c1OC(=O)COC(=O)CN1CCOCC1 [Compound 23]
[1]; 30 s
  Decomposition rates of prodrugs: 89%
[1]; 1 min
  Decomposition rates of prodrugs: 100%
[1]; 5 min
  Decomposition rates of prodrugs: 100%
[1]; 10 min
  Decomposition rates of prodrugs: 100%
[1]; 30 min
  Decomposition rates of prodrugs: 100%
[1]; 60 min
  Decomposition rates of prodrugs: 100%
[1]; 120 min
  Decomposition rates of prodrugs: 100%
[2]
  TI (therapeutic index): 4.4
[3]; [4]
  T1: the onset time after injection: Immediate
  T2: the duration of disappearance of righting reflex: 5 to 13 min
  T3: the time required for righting reflex to recover to autonomous activity: 1 to 2 min

## CC(C)c1cccc([C@@H](C)C2CC2)c1OC(=O)COC(=O)CN1CCCC1.Cl [Compound 55]
[3]; [5]
  T1: the onset time after injection: Immediate
  T2: the duration of disappearance of righting reflex: 5 to 9 min
  T3: the time required for righting reflex to recover to autonomous activity: 1 to 2 min

## CC(C)c1cccc(C(C)C)c1OC(=O)COC(=O)[C@H](C)N [Compound 4]
[1]; 30 s
  Decomposition rates of prodrugs: 94%
[1]; 1 min
  Decomposition rates of prodrugs: 100%
[1]; 5 min
  Decomposition rates of prodrugs: 100%
[1]; 10 min
  Decomposition rates of prodrugs: 100%
[1]; 30 min
  Decomposition rates of prodrugs: 100%
[1]; 60 min
  Decomposition rates of prodrugs: 100%
[1]; 120 min
  Decomposition rates of prodrugs: 100%
[3]; [4]
  T1: the onset time after injection: Immediate
  T2: the duration of disappearance of righting reflex: 5 to 13 min
  T3: the time required for righting reflex to recover to autonomous activity: 1 to 2 min

## CC(C)c1cccc([C@H](C)C2CC2)c1OC(=O)COC(=O)CN1CCOCC1.Cl [Compound 17]
[1]; 30 s
  Decomposition rates of prodrugs: 55%
[1]; 1 min
  Decomposition rates of prodrugs: 63%
[1]; 5 min
  Decomposition rates of prodrugs: 78%
[1]; 10 min
  Decomposition rates of prodrugs: 85%
[1]; 30 min
  Decomposition rates of prodrugs: 100%
[1]; 60 min
  Decomposition rates of prodrugs: 100%
[1]; 120 min
  Decomposition rates of prodrugs: 100%
[3]; [5]
  T1: the onset time after injection: Immediate
  T2: the duration of disappearance of righting reflex: 5.5 to 8 min
  T3: the time required for righting reflex to recover to autonomous activity: 1 to 2 min

## CC(C)c1cccc([C@H](C)C2CC2)c1OC(=O)COC(=O)CN1CCOCC1 [Compound 19]
[3]; [5]
  T1: the onset time after injection: Immediate
  T2: the duration of disappearance of righting reflex: 5.5 to 9 min
  T3: the time required for righting reflex to recover to autonomous activity: 1 to 2 min

## CC(C)c1cccc([C@H](C)C2CC2)c1O [(R)-2-cyclopropylethyl-6-isopropylphenol, reference compound]
[3]; [5]
  T1: the onset time after injection: Immediate
  T2: the duration of disappearance of righting reflex: 5 to 8 min
  T3: the time required for righting reflex to recover to autonomous activity: 1 to 2 min

## CC(C)c1cccc(C(C)C)c1OC(=O)COC(=O)CN [Compound 1]
[1]; 30 s
  Decomposition rates of prodrugs: 97%
[1]; 1 min
  Decomposition rates of prodrugs: 100%
[1]; 5 min
  Decomposition rates of prodrugs: 100%
[1]; 10 min
  Decomposition rates of prodrugs: 100%
[1]; 30 min
  Decomposition rates of prodrugs: 100%
[1]; 60 min
  Decomposition rates of prodrugs: 100%
[1]; 120 min
  Decomposition rates of prodrugs: 100%
[3]; mouse, in vivo
  T1: the onset time after injection: Immediate
  T2: the duration of disappearance of righting reflex: 6 to 12 min
  T3: the time required for righting reflex to recover to autonomous activity: 1 to 2 min
